According to PMC11915835, “Enhancing the solubility of SARS-CoV-2 inhibitors to increase future prospects for clinical development” (Journal of Virology, 2025):

Target: SARS-CoV-2 S D614G (Severe acute respiratory syndrome coronavirus 2, UniProt P0DTC2, D614G)
Assay type: cell-based
Settings: read-out: IC90, inhibition of S-mediated cell–cell fusion, SARS-CoV-2 D614G

Substance | IC90
Ac-DISQINASVVNIEYEIKKLEEVAKKLEESLIDLQEL-NH2 [QE] | 70 ± 10 nM
Ac-PDVDLGDISQINASVVNIEYEIKKLEEVAKKLEESLIDLQEL-NH2 [QE-EXT] | 90 ± 20 nM
Ac-SIDQINATFVDIEYEIKKLEEVAKKLEESYIDLKEL-NH2 [SK] | 96 ± 20 nM
